Assays:
hCA XII = hCA XII (Homo sapiens, UniProt O43570); test: Stopped-flow CO2 hydrase assay, hCA XII; conditions: for SI CA I/XII / SI CA II/XII: selectivity index, ratio of KIs
Procedure: (§1) The uncatalyzed rates were determined in the same manner and subtracted from the total observed rates. Stock solutions of inhibitor (0.1 mM) were prepared in distilled-deionized water and dilutions up to 0.01 nM were done thereafter with the assay buffer. […] The inhibition constants were obtained by nonlinear least-squares methods using PRISM 3 and the Cheng–Prusoff equation, as reported earlier,[39] and represent the mean from at least three different determinations.

hCA IX = hCA IX (Homo sapiens, UniProt Q16790); test: Stopped-flow CO2 hydrase assay, hCA IX; conditions: for SI CA I/IX / SI CA II/IX: selectivity index, ratio of KIs
Procedure: as §1

hCA IV = hCA IV (Homo sapiens, UniProt P22748); test: Stopped-flow CO2 hydrase assay, hCA IV; conditions: for SI CA I/IV / SI CA II/IV: selectivity index, ratio of KIs
Procedure: as §1

hCA I = hCA I (Homo sapiens, UniProt P00915); test: Stopped-flow CO2 hydrase assay, hCA I
Procedure: as §1

hCA II = hCA II (Homo sapiens, UniProt P00918); test: Stopped-flow CO2 hydrase assay, hCA II; conditions: for SI CA I/II: selectivity index, ratio of KIs
Procedure: as §1

Sequence of hCA IV (P22748 19-312): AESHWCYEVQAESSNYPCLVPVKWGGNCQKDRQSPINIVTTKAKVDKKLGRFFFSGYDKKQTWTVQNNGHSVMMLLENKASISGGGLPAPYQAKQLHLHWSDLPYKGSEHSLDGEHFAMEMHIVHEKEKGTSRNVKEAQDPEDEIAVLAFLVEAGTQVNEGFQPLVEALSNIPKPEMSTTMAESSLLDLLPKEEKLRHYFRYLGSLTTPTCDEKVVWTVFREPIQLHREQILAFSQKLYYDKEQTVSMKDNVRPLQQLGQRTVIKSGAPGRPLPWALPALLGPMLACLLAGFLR
Sequence of hCA XII (O43570 25-354): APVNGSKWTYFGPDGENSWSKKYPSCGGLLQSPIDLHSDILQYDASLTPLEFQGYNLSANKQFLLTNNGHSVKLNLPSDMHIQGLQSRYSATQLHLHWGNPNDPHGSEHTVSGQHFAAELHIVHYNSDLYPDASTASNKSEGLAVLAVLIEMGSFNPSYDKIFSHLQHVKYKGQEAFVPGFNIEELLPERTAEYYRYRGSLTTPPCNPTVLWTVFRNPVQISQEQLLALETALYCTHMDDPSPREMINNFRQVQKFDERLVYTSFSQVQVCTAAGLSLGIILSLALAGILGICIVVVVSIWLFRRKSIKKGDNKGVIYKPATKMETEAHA
Sequence of hCA I (P00915 whole entry): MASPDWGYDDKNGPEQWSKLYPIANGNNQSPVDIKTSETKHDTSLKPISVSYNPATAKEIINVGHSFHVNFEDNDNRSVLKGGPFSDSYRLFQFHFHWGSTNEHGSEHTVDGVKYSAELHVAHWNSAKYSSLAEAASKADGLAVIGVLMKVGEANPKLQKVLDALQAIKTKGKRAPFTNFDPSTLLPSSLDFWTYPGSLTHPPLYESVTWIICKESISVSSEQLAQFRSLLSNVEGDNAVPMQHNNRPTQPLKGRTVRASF

SMILES | melting point [°C] | SI CA I/XII (hCA XII) | SI CA II/XII (hCA XII) | SI CA I/IX (hCA IX) | SI CA II/IX (hCA IX) | SI CA I/IV (hCA IV) | SI CA II/IV (hCA IV) | Ki (hCA XII) [nM] | Ki (hCA I) [nM] | Ki (hCA IX) [nM] | Ki (hCA II) [nM] | SI CA I/II (hCA II) | Ki (hCA IV) [nM]
NS(=O)(=O)c1ccc(CCN(Cc2ccc(Cl)cc2)C(=O)c2ccc(-c3cssc3=S)cc2)cc1 [Compound 21, N-(4-Chlorobenzyl)-N-(4-sulfamoylphenethyl)-4-(3-thioxo-3H-1,2-dithiol-4-yl)benzamide] | 104 to 105 | 561 | 303 | 229 | 124 | 12.8 | 6.9 |  |  |  |  |  | 
COc1ccc(CN(CCc2ccc(S(N)(=O)=O)cc2)C(=O)c2ccc(-c3cssc3=S)cc2)cc1 [Compound 27, N-(4-Methoxybenzyl)-N-(4-sulfamoylphenethyl)-4-(3-thioxo-3H-1,2-dithiol-4-yl)benzamide] | 151 to 152 | 29.0 | 7.7 | 44.0 | 11.7 | 1.4 | 0.4 |  |  |  |  |  | 
NS(=O)(=O)c1ccc(CCN(CCc2ccccc2)C(=O)c2ccc(-c3cssc3=S)cc2)cc1 [Compound 32, N-Phenethyl-N-(4-sulfamoylphenethyl)-4-(3-thioxo-3H-1,2-dithiol-4-yl)benzamide] | 228 to 229 | 462 | 69.6 | 34.9 | 5.3 | 18.0 | 2.7 |  |  |  |  |  | 
NS(=O)(=O)c1ccc(CCNCc2csc3ccccc23)cc1 [Compound 16, 4-(2-((Benzo[b]thiophen-3-ylmethyl)amino)ethyl)benzenesulfonamide] |  | 5.3 | 2.8 | 5.3 | 2.8 | 0.05 | 0.03 | 69.8 | 374 | 70.5 | 202 | 1.9 | 7240
CSc1ccc(CNCCc2ccc(S(N)(=O)=O)cc2)cc1 [Compound 14, 4-(2-((4-(Methylthio)benzyl)amino)ethyl)benzenesulfonamide] |  |  |  |  |  |  |  | 88.6 | 122 | 112 |  |  | 2130
CN(C)c1ccc(CN(CCc2ccc(S(N)(=O)=O)cc2)C(=O)c2ccc(-c3cssc3=S)cc2)cc1 [Compound 24, N-(4-(Dimethylamino)benzyl)-N-(4-sulfamoylphenethyl)-4-(3-thioxo-3H-1,2-dithiol-4-yl)benzamide] | 185 to 186 | 448 | 105 | 188 | 43.9 | 1.2 | 0.3 |  |  |  |  |  | 
CN(C)c1ccc(CNCCc2ccc(S(N)(=O)=O)cc2)cc1 [Compound 9, 4-(2-((4-(Dimethylamino)benzyl)amino)ethyl)benzenesulfonamide] |  |  |  |  |  |  |  |  |  |  |  |  | 961
N#Cc1ccc(CN(CCc2ccc(S(N)(=O)=O)cc2)C(=O)c2ccc(-c3cssc3=S)cc2)cc1 [Compound 23, N-(4-Cyanobenzyl)-N-(4-sulfamoylphenethyl)-4-(3-thioxo-3H-1,2-dithiol-4-yl)benzamide] | 251 to 252 | >1136 | 548 | >248 | 120 | >216.4 | 104 |  |  |  |  |  | 
NS(=O)(=O)c1ccc(CCN(Cc2ccc(F)cc2)C(=O)c2ccc(-c3cssc3=S)cc2)cc1 [Compound 20, N-(4-Fluorobenzyl)-N-(4-sulfamoylphenethyl)-4-(3-thioxo-3H-1,2-dithiol-4-yl)benzamide] | 158 to 159 | 81.5 | 9.2 | 115 | 13.0 | <0.53 | <0.06 |  |  |  |  |  | 
NS(=O)(=O)c1ccc(CCNCc2ccc(Br)cc2)cc1 [Compound 7, 4-(2-((4-Bromobenzyl)amino)ethyl)benzenesulfonamide] |  | 2.6 | 2.3 | 2.5 | 2.2 | 0.04 | 0.04 | 83.6 | 214 | 86.4 | 189 | 1.1 | 5240
N#CCCN(CCc1ccc(S(N)(=O)=O)cc1)C(=O)c1ccc(-c2cssc2=S)cc1 [Compound 33, N-(2-Cyanoethyl)-N-(4-sulfamoylphenethyl)-4-(3-thioxo-3H-1,2-dithiol-4-yl)benzamide] |  | 45.2 | 6.4 | 15.0 | 2.1 | 0.8 | 0.11 |  |  |  |  |  | 
NS(=O)(=O)c1ccc(CCN(Cc2ccccc2)C(=O)c2ccc(-c3cssc3=S)cc2)cc1 [Compound 19, N-Benzyl-N-(4-sulfamoylphenethyl)-4-(3-thioxo-3H-1,2-dithiol-4-yl)benzamide] | 139 to 140 | 79.4 | 49.5 | 19.2 | 11.1 | 0.18 | 0.11 |  | 771 to 890 |  |  |  | 
NS(=O)(=O)c1ccc(CCN(Cc2ccc([N+](=O)[O-])cc2)C(=O)c2ccc(-c3cssc3=S)cc2)cc1 [Compound 25, N-(4-Nitrobenzyl)-N-(4-sulfamoylphenethyl)-4-(3-thioxo-3H-1,2-dithiol-4-yl)benzamide] | 223 to 224 | 226 | 27.9 | 204 | 25.1 | <0.7 | <0.09 |  |  |  |  |  | 
COc1ccc(CNCCc2ccc(S(N)(=O)=O)cc2)cc1OC [Compound 13, 4-(2-((3,4-Dimethoxybenzyl)amino)ethyl)benzenesulfonamide] |  | 0.9 | 1.5 | 0.9 | 0.7 |  | 0.07 | 51 | 88.6 | 103 | 75.2 | 1.2 | 1100
NS(=O)(=O)c1ccc(CCNCc2ccc(Cl)cc2)cc1 [Compound 6, 4-(2-((4-Chlorobenzyl)amino)ethyl)benzenesulfonamide] |  | 1.8 | 1.5 | 2.0 | 1.7 | 0.04 | 0.03 | 75.2 | 136 | 67.4 | 115 | 1.2 | 3680
COc1ccc(CNCCc2ccc(S(N)(=O)=O)cc2)cc1 [Compound 12, 4-(2-((4-Methoxybenzyl)amino)ethyl)benzenesulfonamide] |  |  |  |  |  |  |  | 57.2 | 97.2 |  |  |  | 1450
NS(=O)(=O)c1ccc(CCN(Cc2ccc(Br)cc2)C(=O)c2ccc(-c3cssc3=S)cc2)cc1 [Compound 22, N-(4-Bromobenzyl)-N-(4-sulfamoylphenethyl)-4-(3-thioxo-3H-1,2-dithiol-4-yl)benzamide] | 65 to 66 | 597 | 284 | 403 | 192 | 7.4 | 3.5 |  |  |  |  |  | 
COc1cc([N+](=O)[O-])ccc1CNCCc1ccc(S(N)(=O)=O)cc1 [Compound 11, 4-(2-((2-Methoxy-4-nitrobenzyl)amino)ethyl)benzenesulfonamide] |  |  |  |  |  |  |  |  | 145 |  |  |  | 1860
COc1ccc(CN(CCc2ccc(S(N)(=O)=O)cc2)C(=O)c2ccc(-c3cssc3=S)cc2)cc1OC [Compound 28, N-(3,4-Dimethoxybenzyl)-N-(4-sulfamoylphenethyl)-4-(3-thioxo-3H-1,2-dithiol-4-yl)benzamide] | 183 to 184 | 105 | 25.7 | 47.9 | 11.7 | 3.0 | 0.7 |  | 771 to 890 |  |  |  | 
N#Cc1ccc(CNCCc2ccc(S(N)(=O)=O)cc2)cc1 [Compound 8, 4-(2-((4-Cyanobenzyl)amino)ethyl)benzenesulfonamide] |  |  |  |  |  |  |  | 52.9 | 91.4 |  | 70.2 |  | 1780
